Assay results: US10457707B2, “Substituted urea depsipeptide analogs as activators of the CLPP endopeptidase” (priority 2015, dated 2019)
In brackets after ≈: the same amount, converted by molar mass. Where two headings read alike, the source gives them in different places. *1 amine or outer side, *2 acyl side, *3 side chain or, on linkers, in order; H or OH if unused. Where a SMILES comes first, the peptide text is derived from it. Bridges are numbered along the chain shown (N, C = ends). [ ]: non-standard residue; d: D form. The star is where a group is joined. ξ: configuration not given here. NH(1,3-benzodioxol-5-yl) = c1cc2c(cc1N*)OCO2; Phe(3,5-F2) = N[C@@H](Cc1cc(F)cc(F)c1)C(=O)O; NH(1-Me-indolin-5-yl) = CN1CCc2cc(N*)ccc21; NH(4-OCF3-phenyl) = FC(F)(F)Oc1ccc(N*)cc1; Morpholine(3S-CO) = O=C(O)[C@@H]1COCCN1; Pro(4S-Me) = C[C@@H]1CN[C@H](C(=O)O)C1; NH(4-Cl-2-F-phenyl) = Fc1cc(Cl)ccc1N*; Pro(4R-Me) = C[C@H]1CN[C@H](C(=O)O)C1; NH(3,4-Me2-phenyl) = Cc1ccc(N*)cc1C; ξPro(4R-OH) = O=C(O)C1C[C@@H](O)CN1; ξPro(4R-Me) = C[C@H]1CNC(C(=O)O)C1; Hyp = O=C(O)[C@@H]1C[C@@H](O)CN1; NH(4-Et-phenyl) = CCc1ccc(N*)cc1; NMeT = CN[C@H](C(=O)O)[C@@H](C)O; NH(4-Me-phenyl) = Cc1ccc(N*)cc1; aThr = C[C@H](O)[C@H](N)C(=O)O; Pip = O=C(O)[C@@H]1CCCCN1; NMeA = CN[C@@H](C)C(=O)O; X1 = N#Cc1cc(N*)ccc1F; CO = O=C([*:1])[*:2]; ξP = O=C(O)C1CCCN1

Legend:
[1] = system: Streptococcus pyogenes, ATCC 700294; assay: Minimal inhibitory concentration assay (microbroth dilution); format: cell-based
Method in brief: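 CLSI broth microdilution: two-fold serial compound dilutions in appropriate broth, inoculated and incubated aerobically overnight at 37° C. MIC read visually as lowest concentration preventing bacterial growth.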

[2] = biological target: T1, Sa-ClpP (Staphylococcus aureus, UniProt Q2G036); assay: ADEP displacement fluorescence polarization assay (FP probe ADEP 2591); format: binding
T1 construct: made in house; host or cells: E. coli BL21(DE3)
T1 sequence (Q2G036 1-195): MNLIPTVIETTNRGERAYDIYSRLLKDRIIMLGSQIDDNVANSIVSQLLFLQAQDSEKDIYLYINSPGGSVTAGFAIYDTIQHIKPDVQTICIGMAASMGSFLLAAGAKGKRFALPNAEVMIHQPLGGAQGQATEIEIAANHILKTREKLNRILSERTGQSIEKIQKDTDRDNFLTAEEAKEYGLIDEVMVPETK
Method in brief: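 Master mix of 15 μM S. aureus ClpP with 50 nM TAMRA-labelled ADEP 2591 probe in Tris-HCl pH 8.0, 2% DMSO, was pre-equilibrated 1 h, then incubated with compound 120 min at room temperature. Polarization (ex 530, em 579 nm) was normalized to 200 μM ADEP 2378 and DMSO controls; four-parameter fits, triplicate.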

[3] = system: Staphylococcus aureus, NRS70; assay: Minimal inhibitory concentration assay (microbroth dilution); format: cell-based
Method in brief: (§1)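 CLSI broth microdilution: two-fold compound dilutions from 200 μM final, ~10^5 cfu/mL inoculum, aerobic overnight incubation at 37 °C. MIC read visually as lowest concentration preventing growth; S. aureus USA 300 compared with its ClpP-inactivated counterpart to check ClpP dependence.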

[4] = system: Bacillus subtilis, ATCC 23857; assay: as above; format: cell-based
Method in brief: as §1

[5] = system: Staphylococcus aureus, ATCC 29213; assay: as above; format: cell-based; settings: ATCC29213, read-out: Minimal Inhibitory Concentrations S. aureus ATCC 29213
Method in brief: as §1

[6] = Streptococcus pyogenes, ATCC700294, read-out: Minimal Inhibitory Concentrations S. pyogenes ATCC 700294
[7] = Staphylococcus aureus, NRS70, read-out: Minimal Inhibitory Concentrations S. aureus NRS70
[8] = Bacillus subtilis, ATCC23857, read-out: Minimal Inhibitory Concentrations B. subtilis ATCC 23857
[9] = Streptococcus pyogenes, ATCC700294; read-out: Minimal Inhibitory Concentrations S. pyogenes ATCC 700294
[10] = Staphylococcus aureus, NRS70; read-out: Minimal Inhibitory Concentrations S. aureus NRS70
[11] = Bacillus subtilis, ATCC23857; read-out: Minimal Inhibitory Concentrations B. subtilis ATCC 23857

SMILES	MIC [1, 6] [µM]	IC50 [2] [µM]	MIC [3, 7] [µM]	MIC [4, 8] [µM]	MIC [5] [µM]	MIC [1, 9] [µM]	MIC [3, 10] [µM]	MIC [4, 11] [µM]
Cc1ccc(NC(=O)N[C@@H](Cc2cc(F)cc(F)c2)C(=O)N[C@@H]2C(=O)N3C[C@H](O)C[C@H]3C(=O)N3CCOC[C@H]3C(=O)N[C@@H](C)C(=O)N3C[C@H](C)C[C@H]3C(=O)O[C@H]2C)cc1C [Compound 215, (S)-3-(3,5-difluorophenyl)-2-(3-(3,4-dimethylphenyl)ureido)-N-((6aS,8R,12S,13S,15aS,17R,21S,23aS)-8-hydroxy-13,17,21-trimethyl-6,11,15,20,23-pentaoxooctadecahydro-6H,11H,15H-[1,4]oxazino[3,4-i]dipyrrolo[2,1-c:2′,1′-l][1]oxa[4,7,10,13]tetraazacyclohexadecin-12-yl)propanamide] ({NH(3,4-Me2-phenyl)-CO}-[Phe(3,5-F2)][aThr][Hyp][Morpholine(3S-CO)]A[Pro(4R-Me)]; ester 2-C)	< 0.2	6.8 ± 0.3	0.8 (≈ 0.672 µg/mL)	3.1 (≈ 2.6 µg/mL)	0.4 (≈ 0.336 µg/mL)	–	–	–
C[C@@H]1C[C@H]2C(=O)O[C@@H](C)[C@H](NC(=O)[C@H](Cc3cc(F)cc(F)c3)NC(=O)Nc3ccc4c(c3)CCN4C)C(=O)N3C[C@H](O)C[C@H]3C(=O)N3CCOC[C@H]3C(=O)N[C@@H](C)C(=O)N2C1 [Compound 315, (S)-3-(3,5-difluorophenyl)-N-((6aS,8R,12S,13S,15aS,17R,21S,23aS)-8-hydroxy-13,17,21-trimethyl-6,11,15,20,23-pentaoxooctadecahydro-6H,11H,15H-[1,4]oxazino[3,4-i]dipyrrolo[2,1-c:2′,1′-l][1]oxa[4,7,10,13]tetraazacyclohexadecin-12-yl)-2-(3-(1-methylindolin-5-yl)ureido)propanamide] ({NH(1-Me-indolin-5-yl)-CO}-[Phe(3,5-F2)][aThr][Hyp][Morpholine(3S-CO)]A[Pro(4R-Me)]; ester 2-C)	0.625 (≈ 0.542 µg/mL)	13.5 ± 0.6	5 (≈ 4.33 µg/mL)	20 (≈ 17.3 µg/mL)	5 (≈ 4.33 µg/mL)	–	–	–
C[C@@H]1NC(=O)[C@H](C)N(C)C(=O)[C@@H]2CCCN2C(=O)[C@@H](NC(=O)[C@H](Cc2ccccc2)NC(=O)Nc2ccc(OC(F)(F)F)cc2)COC(=O)C2CCCN2C1=O (stereo partly drawn) [Compound 213, (2S)-3-phenyl-2-(3-(4-(trifluoromethoxy)phenyl)ureido)-N-((6S,9S,11aS,17S)-6,9,10-trimethyl-5,8,11,16,20-pentaoxohexadecahydro-1H,5H,16H-dipyrrolo[2,1-c:2′,1′-l][1]oxa[4,7,10,13]tetraazacyclohexadecin-17-yl)propanamide] ({NH(4-OCF3-phenyl)-CO}-FSP[NMeA]A[ξP]; ester 2-C)	–	5 ± 0.4	–	–	3.12 (≈ 2.46 µg/mL)	0.39 (≈ 0.307 µg/mL)	0.78 (≈ 0.614 µg/mL)	< 0.2
C[C@@H]1C[C@H]2C(=O)OC[C@H](NC(=O)[C@H](Cc3cc(F)cc(F)c3)NC(=O)Nc3ccc4c(c3)OCO4)C(=O)N3C[C@H](O)C[C@H]3C(=O)N3CCOC[C@H]3C(=O)N[C@@H](C)C(=O)N2C1 [Compound 318, (S)-2-(3-(benzo[d][1,3]dioxol-5-yl)ureido)-3-(3,5-difluorophenyl)-N-((6aS,8R,12S,15aS,17R,21S,23aS)-8-hydroxy-17,21-dimethyl-6,11,15,20,23-pentaoxooctadecahydro-6H,11H,15H-[1,4]oxazino[3,4-i]dipyrrolo[2,1-c:2′,1′-l][1]oxa[4,7,10,13]tetraazacyclo-hexadecin-12-yl)propanamide] ({NH(1,3-benzodioxol-5-yl)-CO}-[Phe(3,5-F2)]S[Hyp][Morpholine(3S-CO)]A[Pro(4R-Me)]; ester 2-C)	–	6.54 ± 0.5	–	–	20 (≈ 16.8 µg/mL)	0.625 (≈ 0.526 µg/mL)	20 (≈ 16.8 µg/mL)	> 20
C[C@@H]1C[C@H]2C(=O)O[C@@H](C)[C@H](NC(=O)[C@H](Cc3cc(F)cc(F)c3)NC(=O)Nc3ccc(Cl)cc3F)C(=O)N3C[C@H](O)C[C@H]3C(=O)N3CCCC[C@H]3C(=O)N[C@@H](C)C(=O)N2C1 [Compound 329, (S)-2-(3-(4-chloro-2-fluorophenyl)ureido)-3-(3,5-difluorophenyl)-N-((2R,6S,8aS,14aS,16R,20S,21S,23aS)-16-hydroxy-2,6,21-trimethyl-5,8,14,19,23-pentaoxooctadecahydro-1H,5H,14H,19H-pyrido[2,1-i]dipyrrolo[2,1-c:2′,1′-l][1]oxa[4,7,10,13]tetraazacyclo-hexadecin-20-yl)propanamide] ({NH(4-Cl-2-F-phenyl)-CO}-[Phe(3,5-F2)][aThr][Hyp][Pip]A[Pro(4R-Me)]; ester 2-C)	–	7.32 ± 0.4	–	–	0.078 (≈ 0.0673 µg/mL)	0.078 (≈ 0.0673 µg/mL)	0.039 (≈ 0.0336 µg/mL)	0.039 (≈ 0.0336 µg/mL)
C[C@H]1C[C@H]2C(=O)O[C@@H](C)[C@H](NC(=O)[C@H](Cc3cc(F)cc(F)c3)NC(=O)Nc3ccc(OC(F)(F)F)cc3)C(=O)N3CCC[C@H]3C(=O)N(C)[C@@H]([C@@H](C)O)C(=O)N[C@@H](C)C(=O)N2C1 [Compound 36, (S)-3-(3,5-difluorophenyl)-N-((2S,6S,9S,11aS,17S,18S,20aS)-9-((R)-1-hydroxyethyl)-2,6,10,18-tetramethyl-5,8,11,16,20-pentaoxohexadecahydro-1H,5H,16H-dipyrrolo[2,1-c:2′,1′-l][1]oxa[4,7,10,13]tetraazacyclohexadecin-17-yl)-2-(3-(4-(trifluoromethoxy)phenyl)ureido)propanamide] ({NH(4-OCF3-phenyl)-CO}-[Phe(3,5-F2)][aThr]P[NMeT]A[Pro(4S-Me)]; ester 2-C)	–	6.4 ± 0.5	–	–	0.1 (≈ 0.0882 µg/mL)	0.2 (≈ 0.176 µg/mL)	0.05 (≈ 0.0441 µg/mL)	0.1 (≈ 0.0882 µg/mL)
C[C@@H]1C[C@H]2C(=O)O[C@@H](C)[C@H](NC(=O)[C@H](Cc3cc(F)cc(F)c3)NC(=O)Nc3ccc(F)c(C#N)c3)C(=O)N3CCC[C@H]3C(=O)N3CCCC[C@H]3C(=O)N[C@@H](C)C(=O)N2C1 [Compound 324, (S)-2-(3-(3-cyano-4-fluorophenyl)ureido)-3-(3,5-difluorophenyl)-N-((2R,6S,8aS,14aS,20S,21S,23aS)-2,6,21-trimethyl-5,8,14,19,23-pentaoxooctadecahydro-1H,5H,14H,19H-pyrido[2,1-i]dipyrrolo[2,1-c:2′,1′-l][1]oxa[4,7,10,13]tetraazacyclo-hexadecin-20-yl)propanamide] ({X1-CO}-[Phe(3,5-F2)][aThr]P[Pip]A[Pro(4R-Me)]; ester 2-C)	–	7.93 ± 0.3	–	–	0.313 (≈ 0.262 µg/mL)	1.25 (≈ 1.05 µg/mL)	0.313 (≈ 0.262 µg/mL)	0.625 (≈ 0.523 µg/mL)
CCc1ccc(NC(=O)N[C@@H](Cc2cc(F)cc(F)c2)C(=O)N[C@@H]2C(=O)N3C[C@H](O)C[C@H]3C(=O)N3CCOC[C@H]3C(=O)N[C@@H](C)C(=O)N3C[C@H](C)C[C@H]3C(=O)O[C@H]2C)cc1 [Compound 320, (S)-3-(3,5-difluorophenyl)-2-(3-(4-ethylphenyl)ureido)-N-((6aS,8R,12S,13S,15aS,17R,21S,23aS)-8-hydroxy-13,17,21-trimethyl-6,11,15,20,23-pentaoxooctadecahydro-6H,11H,15H-[1,4]oxazino[3,4-i]dipyrrolo[2,1-c:2′,1′-l][1]oxa[4,7,10,13]-tetraazacyclohexadecin-12-yl)propanamide] ({NH(4-Et-phenyl)-CO}-[Phe(3,5-F2)][aThr][Hyp][Morpholine(3S-CO)]A[Pro(4R-Me)]; ester 2-C)	–	7.48 ± 0.6	–	–	0.156 (≈ 0.131 µg/mL)	0.039 (≈ 0.0328 µg/mL)	0.156 (≈ 0.131 µg/mL)	0.625 (≈ 0.525 µg/mL)
Cc1ccc(NC(=O)N[C@@H](Cc2cc(F)cc(F)c2)C(=O)N[C@@H]2C(=O)N3C[C@H](O)CC3C(=O)N(C)[C@@H](C)C(=O)N[C@@H](C)C(=O)N3C[C@H](C)CC3C(=O)O[C@H]2C)cc1 (stereo partly drawn) [Compound 31, (S)-3-(3,5-difluorophenyl)-N-((2S,6S,9S,11aS,13R,17S,18S,20aS)-13-hydroxy-2,6,9,10,18-pentamethyl-5,8,11,16,20-pentaoxohexadecahydro-1H,5H,16H-dipyrrolo[2,1-c:2′,1′-l][1]oxa[4,7,10,13]tetraazacyclohexadecin-17-yl)-2-(3-(p-tolyl)ureido)propanamide] ({NH(4-Me-phenyl)-CO}-[Phe(3,5-F2)][aThr][ξPro(4R-OH)][NMeA]A[ξPro(4R-Me)]; ester 2-C)	0.78 (≈ 0.622 µg/mL)	5.8 ± 0.3	0.39 (≈ 0.311 µg/mL)	0.39 (≈ 0.311 µg/mL)	0.39 (≈ 0.311 µg/mL)	–	–	–
